# pIC50: −log10 of the molar value.
# Target: T1, ZAP-70 (Homo sapiens, UniProt P43403)
# T1 sequence (P43403 1-619): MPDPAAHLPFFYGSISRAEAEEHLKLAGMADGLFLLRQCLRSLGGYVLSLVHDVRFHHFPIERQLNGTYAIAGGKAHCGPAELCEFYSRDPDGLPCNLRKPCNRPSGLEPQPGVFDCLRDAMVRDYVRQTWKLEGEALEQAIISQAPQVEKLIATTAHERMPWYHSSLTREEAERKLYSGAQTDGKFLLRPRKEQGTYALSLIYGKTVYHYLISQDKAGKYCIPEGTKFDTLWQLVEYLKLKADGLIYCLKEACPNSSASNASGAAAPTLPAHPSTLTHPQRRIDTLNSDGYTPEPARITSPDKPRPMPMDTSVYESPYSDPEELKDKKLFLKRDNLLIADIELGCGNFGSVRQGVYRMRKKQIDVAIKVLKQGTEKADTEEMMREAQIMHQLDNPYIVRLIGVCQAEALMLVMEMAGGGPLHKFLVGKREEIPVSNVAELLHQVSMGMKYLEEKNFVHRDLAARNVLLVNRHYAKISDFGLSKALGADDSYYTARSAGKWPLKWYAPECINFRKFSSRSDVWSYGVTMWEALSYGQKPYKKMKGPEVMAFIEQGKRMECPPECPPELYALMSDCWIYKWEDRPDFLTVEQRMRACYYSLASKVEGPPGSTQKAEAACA
# Assay: DELFIA assay (ZAP-70 kinase, phosphorylation of biotinylated poly(glu,tyr))
# Format: biochemical
# Conditions: ZAP-70 DELFIA, class symbols; read-out: Activity (IC50 in vitro)
# How it was run: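 3.1 nM ZAP-70 pre-incubated 10 min at room temperature with compound ([…]) and 62.5 nM biotinylated poly(glu,tyr) in 62.5 mM Mops pH 7.0, 12.5 mM MgCl2, 12.5% glycerol, 6.25% DMSO (pre-incubation concentrations); ATP added from 5 mM stock, 30 min reaction, EDTA stop. Phosphorylation read by DELFIA europium anti-phosphotyrosine fluorescence (340/615).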
row,pIC50,Structure (SMILES)
1,5.00 to 6.00,O=C(c1cc(/C=C/c2ccc(C(F)(F)F)cc2)nc2ccc(-c3ccc4c(c3)OCO4)cc12)N1CCC[C@H]1CN1CCCC1 [Compound 133]
2,5.00 to 6.00,O=C(c1cc(CCc2ccccc2)nc2ccc(-c3ccc4c(c3)OCO4)cc12)N1CCC[C@H]1CN1CCCC1 [Compound 134]
3,5.00 to 6.00,O=C(c1cc(CCc2ccc(F)cc2)nc2ccc(-c3ccc4c(c3)OCO4)cc12)N1CCC[C@H]1CN1CCCC1 [Compound 135]
4,5.00 to 6.00,O=C(c1cc(CCc2ccc(Cl)cc2)nc2ccc(-c3ccc4c(c3)OCO4)cc12)N1CCC[C@H]1CN1CCCC1 [Compound 136]
5,5.00 to 6.00,O=C(c1cc(CCc2ccc(C(F)(F)F)cc2)nc2ccc(-c3ccc4c(c3)OCO4)cc12)N1CCC[C@H]1CN1CCCC1 [Compound 137]
6,< 5.00,NC(=O)c1cc(C(=O)N2CCC[C@H]2CN2CCCC2)c2cc(-c3ccc4c(c3)OCO4)ccc2n1 [Compound 138]
7,5.00 to 6.00,O=C(NCc1ccc(C(F)(F)F)cc1)c1cc(C(=O)N2CCC[C@H]2CN2CCCC2)c2cc(-c3ccc4c(c3)OCO4)ccc2n1 [Compound 139]
8,> 6.00,O=C(NCc1ccc(Cl)cc1)c1cc(C(=O)N2CCC[C@H]2CN2CCCC2)c2cc(-c3ccc4c(c3)OCO4)ccc2n1 [Compound 140]
9,5.00 to 6.00,O=C(NCCc1ccccc1)c1cc(C(=O)N2CCC[C@H]2CN2CCCC2)c2cc(-c3ccc4c(c3)OCO4)ccc2n1 [Compound 141]
10,5.00 to 6.00,CC(CNC(=O)c1cc(C(=O)N2CCC[C@H]2CN2CCCC2)c2cc(-c3ccc4c(c3)OCO4)ccc2n1)c1ccccc1 (some centres unmarked) [Compound 142]
11,5.00 to 6.00,CCN(Cc1ccc(C)cc1)C(=O)c1cc(C(=O)N2CCC[C@H]2CN2CCCC2)c2cc(-c3ccc4c(c3)OCO4)ccc2n1 [Compound 143]
12,5.00 to 6.00,O=C(Nc1ccccc1)c1cc(C(=O)N2CCC[C@H]2CN2CCCC2)c2cc(-c3ccc4c(c3)OCO4)ccc2n1 [Compound 144]
13,5.00 to 6.00,O=C(c1cc(NCc2ccc(C(F)(F)F)cc2)nc2ccc(-c3ccc4c(c3)OCO4)cc12)N1CC2CC2[C@H]1CN1CCCC1 (some centres unmarked) [Compound 145]
14,5.00 to 6.00,O=C(c1cc(NCc2ccc(Cl)cc2)nc2ccc(-c3ccc4c(c3)OCO4)cc12)N1CC2CC2[C@H]1CN1CCCC1 (some centres unmarked) [Compound 146]
15,5.00 to 6.00,C[C@H]1CCN(C(=O)c2cc(NCc3ccc(C(F)(F)F)cc3)nc3ccc(-c4ccc5c(c4)OCO5)cc23)[C@@H]1CN1CCCC1 [Compound 147]
16,5.00 to 6.00,C[C@H]1CCN(C(=O)c2cc(NCc3ccc(Cl)cc3)nc3ccc(-c4ccc5c(c4)OCO5)cc23)[C@@H]1CN1CCCC1 [Compound 148]
17,5.00 to 6.00,O=C(c1cc(NCc2ccc(C(F)(F)F)cc2)nc2ccc(-c3ccc4c(c3)OCO4)cc12)N1CC[C@H]1CN1CCCC1 [Compound 149]
18,< 5.00,CN(Cc1ccccc1)c1cc(C(=O)N2CCC[C@H]2CN2CCCC2)c2cc(-c3ccc(C#N)cc3)ccc2n1 [Compound 150]
19,< 5.00,COc1ccccc1CNc1cc(C(=O)N2CCC[C@H]2CN2CCCC2)c2cc(-c3ccc(C#N)cc3)ccc2n1 [Compound 151]
20,< 5.00,COc1ccc(CNc2cc(C(=O)N3CCC[C@H]3CN3CCCC3)c3cc(-c4ccc(C#N)cc4)ccc3n2)cc1 [Compound 152]
21,< 5.00,N#Cc1ccc(-c2ccc3nc(N4CCc5ccccc5C4)cc(C(=O)N4CCC[C@H]4CN4CCCC4)c3c2)cc1 [Compound 153]
22,< 5.00,N#Cc1ccc(-c2ccc3nc(NCc4ccccc4)cc(C(=O)N4CCC[C@H]4CN4CCCC4)c3c2)cc1 [Compound 154]
23,< 5.00,N#Cc1ccc(-c2ccc3nc(NC4Cc5ccccc5C4)cc(C(=O)N4CCC[C@H]4CN4CCCC4)c3c2)cc1 [Compound 155]
24,< 5.00,N#Cc1ccc(-c2ccc3nc(NCCc4ccccc4Cl)cc(C(=O)N4CCC[C@H]4CN4CCCC4)c3c2)cc1 [Compound 156]

row,pIC50,Structure (SMILES)
1,< 5.00,N#Cc1ccc(-c2ccc3nc(NCc4cccc(C(F)(F)F)c4)cc(C(=O)N4CCC[C@H]4CN4CCCC4)c3c2)cc1 [Compound 157]
2,< 5.00,N#Cc1ccc(-c2ccc3nc(NCc4ccccc4F)cc(C(=O)N4CCC[C@H]4CN4CCCC4)c3c2)cc1 [Compound 158]
3,< 5.00,N#Cc1ccc(-c2ccc3nc(NCc4ccc(F)cc4)cc(C(=O)N4CCC[C@H]4CN4CCCC4)c3c2)cc1 [Compound 159]
4,< 5.00,COc1cccc(CNc2cc(C(=O)N3CCC[C@H]3CN3CCCC3)c3cc(-c4ccc(C#N)cc4)ccc3n2)c1 [Compound 160]
5,< 5.00,N#Cc1ccc(-c2ccc3nc(NCc4cccc(F)c4)cc(C(=O)N4CCC[C@H]4CN4CCCC4)c3c2)cc1 [Compound 161]
6,< 5.00,N#Cc1ccc(-c2ccc3nc(NCc4ccc(F)c(F)c4)cc(C(=O)N4CCC[C@H]4CN4CCCC4)c3c2)cc1 [Compound 162]
7,< 5.00,N#Cc1ccc(-c2ccc3nc(NCc4cc(F)ccc4F)cc(C(=O)N4CCC[C@H]4CN4CCCC4)c3c2)cc1 [Compound 163]
8,< 5.00,N#Cc1ccc(-c2ccc3nc(NCc4ccccc4C(F)(F)F)cc(C(=O)N4CCC[C@H]4CN4CCCC4)c3c2)cc1 [Compound 164]
9,< 5.00,N#Cc1ccc(-c2ccc3nc(NCc4cccc(Br)c4)cc(C(=O)N4CCC[C@H]4CN4CCCC4)c3c2)cc1 [Compound 165]
10,< 5.00,N#Cc1ccc(-c2ccc3nc(NCc4ccc(Cl)cc4Cl)cc(C(=O)N4CCC[C@H]4CN4CCCC4)c3c2)cc1 [Compound 166]
11,< 5.00,N#Cc1ccc(-c2ccc3nc(NCc4cccc(Cl)c4)cc(C(=O)N4CCC[C@H]4CN4CCCC4)c3c2)cc1 [Compound 167]
12,< 5.00,N#Cc1ccc(-c2ccc3nc(NCc4ccc(Cl)cc4)cc(C(=O)N4CCC[C@H]4CN4CCCC4)c3c2)cc1 [Compound 168]
13,< 5.00,N#Cc1ccc(-c2ccc3nc(NCc4ccccc4Cl)cc(C(=O)N4CCC[C@H]4CN4CCCC4)c3c2)cc1 [Compound 169]
14,< 5.00,N#Cc1ccc(-c2ccc3nc(NCCc4ccccc4)cc(C(=O)N4CCC[C@H]4CN4CCCC4)c3c2)cc1 [Compound 170]
15,< 5.00,CC[C@H](Nc1cc(C(=O)N2CCC[C@H]2CN2CCCC2)c2cc(-c3ccc(C#N)cc3)ccc2n1)c1ccccc1 [Compound 171]
16,< 5.00,Cc1ccccc1CNc1cc(C(=O)N2CCC[C@H]2CN2CCCC2)c2cc(-c3ccc(C#N)cc3)ccc2n1 [Compound 172]
17,< 5.00,Cc1ccc(CCNc2cc(C(=O)N3CCC[C@H]3CN3CCCC3)c3cc(-c4ccc(C#N)cc4)ccc3n2)cc1 [Compound 173]
18,< 5.00,N#Cc1ccc(-c2ccc3nc(NCCc4ccc(Cl)cc4)cc(C(=O)N4CCC[C@H]4CN4CCCC4)c3c2)cc1 [Compound 174]
19,< 5.00,CN(CCc1ccccc1)c1cc(C(=O)N2CCC[C@H]2CN2CCCC2)c2cc(-c3ccc(C#N)cc3)ccc2n1 [Compound 175]
20,< 5.00,C[C@H](Nc1cc(C(=O)N2CCC[C@H]2CN2CCCC2)c2cc(-c3ccc(C#N)cc3)ccc2n1)c1ccccc1 [Compound 176]
21,< 5.00,COc1ccc(CCNc2cc(C(=O)N3CCC[C@H]3CN3CCCC3)c3cc(-c4ccc(C#N)cc4)ccc3n2)cc1 [Compound 177]
22,< 5.00,Cc1ccc(CNc2cc(C(=O)N3CCC[C@H]3CN3CCCC3)c3cc(-c4ccc(C#N)cc4)ccc3n2)cc1 [Compound 178]
23,< 5.00,N#Cc1ccc(-c2ccc3nc(NCc4ccc(F)c(Cl)c4)cc(C(=O)N4CCC[C@H]4CN4CCCC4)c3c2)cc1 [Compound 179]

# Source: patent US20080119515A1, “Heterocyclic Kinase Inhibitors: Methods of Use and Synthesis” (priority 2003, published 2008)
